{"source": "paper PMC10859961", "about": "“Ir(III) Half-Sandwich Photosensitizers with a π-Expansive Ligand for Efficient Anticancer Photodynamic Therapy” (Journal of Medicinal Chemistry, 2024)", "key": {"A549 cancer cells": {"system": "A549 cancer cells", "assay": "MTT cell viability assay, dark or photoactivated", "type": "cell-based, human", "settings": "4 h incubation, kept in the dark, viability after 48 h, MTT, read-out: IC50 dark", "description": "Cells were cultured in 96-well plates at a density of 3000 (A549), 2500 (HeLa), or 5000 (PC-3, 1BR.3.G, and MRC-5) cells per well in cell culture medium and allowed to attach for 24 h. Solutions of the complexes at different concentrations were prepared for cell treatments. In all cases, the solid compounds were weighed using an analytical balance (Mettler Toledo AX205DR) to ensure precise measurements. Subsequently, 5 mM solutions were prepared using DMSO. Solutions were then diluted in water to reach a concentration of 1 mM and then, aliquots were taken and diluted in culture medium to obtain solutions ranging from 0 to 50 μM. […] The cells were treated with these solutions in dark conditions or following the photoactivation protocol (see below). 48 h later the treatments were removed, and cells were washed with phosphate-buffered saline (PBS).\nInitially, the effect of the complexes on the cell viability was determined by the 3-(4,5-dimethylthiazol-2-yl)-2,5-diphenyltetrazolium bromide (MTT) assay.[147] The cells were incubated for 2 h with 100 μL of culture medium together with 10 μL of MTT (Sigma-Aldrich) at 0.5 mg/mL. After discarding the medium, DMSO was added to each well to dissolve the purple formazan crystals. The absorbance of each well was determined on a Multiscan Plate Reader (Synergy 4, Biotek, Winooski) at a wavelength of 570 nm. Cell viability was also assessed using the CyQUANT Direct Cell Proliferation Assay (Thermo Fisher Scientific), following the manufacturer’s instructions. Briefly, after the treatments, the cells were washed with PBS, and an equal volume of culture medium and CyQUANT mix was added to each well. The plates were then incubated for 1 h at 37 °C. Subsequently, the fluorescence intensity was bottom read using a Multiscan Plate Reader (Synergy 4, Biotek, Winooski) with excitation and emission filters of 485 and 528 nm, respectively. In both assays, at least three replicates were measured for each treatment. The concentration that reduces the cell viability by 50% (IC50) was established using the Gen5 software (BioTek). Three independent experiments were carried out for each compound. […] The phototoxicity index (PI = IC50,dark/IC50,light) was determined.\nTo assess the photodynamic activity of the complexes, cells were incubated with the complexes for 4 h to enable their intracellular accumulation. The cells were then irradiated with light with a wavelength of 460 nm (blue), 530 nm (green), or 655 nm (red) for 1 h using a LED system (LuxLight) with an effective power of 6.7 mW cm^–2, which provides a total light dose of 24.1 J cm^–2. The LED system was positioned at 25 mm from the cell culture plates."}, "[1]": {"assay": "pKa determination (absorbance vs pH)", "type": "physicochemical", "settings": "H2O/DMSO (98/2, v/v) solution; DMSO/H2O (2/98, v/v), Bu4NBF4 5 mM; piperidine ring; read-out: pKa", "description": "Solutions of complexes 5 and 6 (2.00 × 10^–5 M) and Imepip ligand (2.00 × 10^–3 M) in H2O/DMSO (98/2, v/v) mixture with n-Bu4NBF4 (5 mM) were prepared. The presence of the salt ensured the conductivity of the media. Evolution of the peaks was studied at different pH by recording the absorbance spectrum. Aliquots of 10 μL of HCl (0.002–0.020 M) or NaOH (0.002–0.020 M) were added to a solution of 2.4 mL of complex to vary the pH. The absorbance versus pH plot enables us to determine one constant according to the equation from the Wilson and Lester method (eq 2):[146] [drawing 23] 2 where Aa is the absorbance for the acid species, Ab is the absorbance for the basic species, and Am is the absorbance of the mixture. The intersection obtained by representing log(Am – Aa)/(Ab – Am) versus pH provides the pKa."}, "[2]": {"settings": "degassed acetonitrile; cited from earlier work"}, "[3]": {"settings": "H2O/DMSO (95:5); cited from earlier work"}, "A549": {"system": "A549", "settings": "425 nm, dose 1.2 J cm‐2, ref e (ACS Appl. Mater. Interfaces, 2017, 9, 42471; main text ref 24); cited from earlier work"}, "HeLa": {"system": "HeLa", "settings": "425 nm, dose 1.2 J cm‐2, ref e (ACS Appl. Mater. Interfaces, 2017, 9, 42471; main text ref 24); cited from earlier work"}, "SK‐MEL28": {"system": "SK‐MEL28", "settings": "visible light, dose 100 J cm‐2, ref m (Inorg. Chem. 2016, 55, 83); cited from earlier work"}, "[4]": {"assay": "1O2 quantum yield determination with DPBF", "settings": "acetonitrile", "description": "It was performed for complexes 1–8 in acetonitrile according to a relative procedure adapted from the literature[132]−[134] based on monitoring the oxidation of 1,3-diphenylisobenzofuran (DPBF, yellow) to 1,2-dibenzoylbenzene (colorless) photosensitized by the Ir(III) complexes. DPBF was used as an ^1O2 scavenger due to its fast reaction with this molecule. Fresh stock air-equilibrated solutions of photosensitizers (6.00 × 10^–6 M) and DPBF (1.50 × 10^–4 M) in acetonitrile were prepared. In a quartz cell, 1 mL of DPBF solution, 0.5 mL of complex solution, and 1.5 mL of acetonitrile were mixed to prepare a final solution with 5.00 × 10^–5 M DPBF and 1.00 × 10^–6 M complex. The final solutions were studied by recording UV–vis absorption spectra at room temperature in dark conditions (over a period of 6 min with time intervals of 2 min), under blue light irradiation (λexc = 470 nm, “Medusa” photoreactor) and under green light irradiation (λexc = 530 nm, “Medusa” photoreactor) for 5 s irradiation intervals during a total exposure period of 20 s. Absorption UV–vis spectra were recorded after every irradiation interval.\nThe consumption of DPBF probe was measured by monitoring its absorbance intensity decrease at 410 nm with irradiation time. ^1O2 generation quantum yield (ϕΔ) was calculated from eq 1 using Rose Bengal or [Ru(bpy)3]^2+ as reference for complexes with pbpz and pbpn ligands, respectively: [drawing 22] 1 where s and ref subscripts correspond to the complex and the reference, ϕΔ is the ^1O2 generation quantum yield (0.53 for Rose Bengal[135] and 0.56 for [Ru(bpy)3]Cl2[132] in degassed acetonitrile), S is the slope of the plots of the −ln(normalized absorbance) of DPBF at 410 nm vs the irradiation time, and F is the correction factor of absorption, which is given by F = 1–10^–O.D. (where O.D. is the optical density at 470 nm of solutions of complexes and references). The reproducibility of the results was confirmed by performing each experiment three times.\nThe stability of DPBF probe was studied in dark conditions and under light irradiation. In dark conditions and under green light irradiation the probe remains unaltered. However, under blue light irradiation, a photobleaching of DPBF was observed. Probe consumption was approximately 6.5% every 5 s. Therefore, a working interval of 20 s was chosen, where 75% of the probe remains stable. To calculate the ϕΔ, a correction factor was applied to the absorbance at 410 nm: a 6.5% of the previous value was added to each absorbance to counteract self-consumption of the probe (i.e., to the absorbance at 10 s, a 6.5% of the absorbance at 5 s was added)."}, "CT26": {"system": "CT26", "design": "method as in p (Pozza et al., Inorg. Chem. 2023)", "settings": "540 nm, dose 9 J cm‐2, ref p (Pozza et al., Inorg. Chem. 2023); cited from earlier work"}, "HT29": {"system": "HT29", "design": "method as in p (Pozza et al., Inorg. Chem. 2023)", "settings": "540 nm, dose 9 J cm‐2, ref p (Pozza et al., Inorg. Chem. 2023); cited from earlier work"}, "RPE‐1": {"system": "RPE‐1", "design": "method as in p (Pozza et al., Inorg. Chem. 2023)", "settings": "cited from earlier work"}, "[5]": {"settings": "540 nm, dose 9 J cm‐2, ref p (Pozza et al., Inorg. Chem. 2023)"}, "[6]": {"settings": "620 nm, dose 6.7 J cm‐2, ref p (Pozza et al., Inorg. Chem. 2023)"}}, "note": "Like-named read-outs stand apart in the source and are kept apart here."}
{"smiles": "c1cn(CCN2CCCCC2)cn1", "note": "[(N-ethylpiperidyl)imidazole, reference compound]", "values": [{"measurement": "IC50", "setting": "A549 cancer cells; A549", "result": "68 ± 2", "unit": "µM"}, {"measurement": "IC50", "setting": "A549 cancer cells; Homo sapiens, A549, A549", "result": "> 50", "unit": "µM"}, {"measurement": "pKa", "setting": "[1]", "result": 7.1}]}
{"smiles": "O=C([O-])c1c(Cl)c(Cl)c(Cl)c(Cl)c1-c1c2cc(I)c(=O)c(I)c-2oc2c(I)c([O-])c(I)cc12.[Na+].[Na+]", "note": "[Rose Bengal]", "values": [{"measurement": "1O2 generation quantum yield (ϕΔ) of reference", "setting": "[2]", "result": 0.53}, {"measurement": "1O2 generation quantum yield (ϕΔ) of reference", "setting": "[3]", "result": 0.76}]}
{"smiles": "F[P-](F)(F)(F)(F)F.[Ir+3].[c-]1ccccc1-c1ccccn1.[c-]1ccccc1-c1ccccn1.c1ccc2cc3[nH]c(-c4ccc5ccccc5n4)nc3cc2c1", "note": "[[Ir(N^∧N)(ppy)2]PF6]", "values": [{"measurement": "PI/Dose", "setting": "A549", "result": 268}, {"measurement": "PI/Dose", "setting": "HeLa", "result": 397}]}
{"smiles": "[Ru+2].[c-]1cccc2c1c1ncccc1c1nc3cc4ccccc4cc3nc21.c1ccc(-c2ccccn2)nc1.c1ccc(-c2ccccn2)nc1", "note": "[[Ru(bpy)2(pbpn)]+]", "values": [{"measurement": "PI", "setting": "SK‐MEL28", "result": "> 1400"}, {"measurement": "PI/Dose", "setting": "SK‐MEL28", "result": "> 140"}]}
{"smiles": "[Cl][Ru][Cl].c1ccc(-c2ccccn2)nc1.c1ccc(-c2ccccn2)nc1.c1ccc(-c2ccccn2)nc1", "note": "[[Ru(bpy)3]Cl2, reference compound]", "values": [{"measurement": "Slope (S) of ‐ln(normalized Abs) vs time, photooxidation of DPBF", "setting": "[4]; λir = 470 nm", "result": 0.0535}, {"measurement": "Slope (S) of ‐ln(normalized Abs) vs time, photooxidation of DPBF", "setting": "[4]; λir = 530 nm", "result": 0.0057}, {"measurement": "1O2 generation quantum yield (ϕΔ) of reference", "setting": "[2]", "result": 0.56}, {"measurement": "1O2 generation quantum yield (ϕΔ) of reference", "setting": "[3]", "result": 0.18}]}
{"smiles": "[Ru+2].c1ccc2cc3nc4c5cccnc5c5ncccc5c4nc3cc2c1.c1ccc2cc3nc4c5cccnc5c5ncccc5c4nc3cc2c1.c1cnc2c(c1)ccc1cccnc12", "note": "[[Ru(dppn)2(phen)]2+]", "values": [{"measurement": "PI", "setting": "CT26", "result": 1666}, {"measurement": "PI/Dose", "setting": "CT26", "result": 185.1}, {"measurement": "PI", "setting": "HT29", "result": 556}, {"measurement": "PI/Dose", "setting": "HT29", "result": 61.8}, {"measurement": "PI", "setting": "RPE‐1; [5]", "result": 556}, {"measurement": "PI/Dose", "setting": "RPE‐1; [5]", "result": 61.8}, {"measurement": "PI", "setting": "RPE‐1; [6]", "result": 333}, {"measurement": "PI/Dose", "setting": "RPE‐1; [6]", "result": 49.7}]}
